Laboratory results: PMC12302426, “Dihydrokoumine, a dual-target analgesic with reduced side effects isolated from a traditional Chinese medicine” (Journal of Advanced Research, 2024)

Tests used:
[1] = target: T1, M3R (Homo sapiens, UniProt P20309); test: Radioligand binding assay, [3H] NMS; settings: [3H] NMS 0.2 nM
T1 construct: expressed in transfected cells; host or cells: HEK293 cell membranes
Experimental: Radioligand binding assays were conducted using MicroBeta2 (PerkinElmer, USA). Membrane protein preparations MOR and M3R were each prepared at a concentration of 2.5 µg/well. The radio ligands [^3H] DAMGO (specific for MOR) and [^3H]-NMS (specific for M3R) were prepared at concentrations of 0.5 nM and 0.2 nM, respectively. […] For each well, 1 µL of the serially diluted test compounds was transferred, followed by the addition of 100 µL of membrane stock solution and 100 µL of radioligand. The plates were sealed and shaken at 300 rpm at room temperature for one hour. Upon completion of the binding assay, the contents of each well were filtered through Unifilter-96 GF/C filter plates (PerkinElmer, USA). The filter plates were dried for one hour at 50°C and sealed. The trapped ^3H (tritium) on the filters was then quantified using the MicroBeta2. The percentage of inhibition or binding was subsequently calculated.

[2] = target: T2, M4R (Homo sapiens, UniProt P08173); test: FLIPR assay in HEK293-M4 cells (carbachol-induced Ca2+); format: cell-based; settings: DK pretreatment one hour
T2 construct: expressed in transfected cells
Experimental: FLIPR assay was carried out as reported earlier. Cell lines were seeded in 96-well plates with black walls (Greiner, USA) at 8.0 × 10^4 cells per well. After approximately 22 h of incubation, the cells were exposed to Calcium-6 dye (Molecular Devices, USA) in HBSS buffer supplemented with 20 mM HEPES (pH 7.4) at 37°C for one hour. Samples, redissolved in DMSO and housed in 96-well drug plates, underwent dilution with FLIPR buffer and subsequent automated introduction to the cells. […] […] Results were presented as fluorescence (arbitrary units) plotted against time.

[3] = target: T3, serotonin receptor 5-HT2A (Homo sapiens, UniProt P28223); test: DMR desensitization assay, HEK293-5HT2A, probe 5-hydroxytryptamine; format: cell-based; settings: 100 μM DK
T3 construct: expressed in transfected cells; host or cells: HEK293-5HT2A
Experimental: (§1) DMR assays were performed using an Epic® BT system (Corning, NY, USA). All used cell lines were directly seeded in Epic 384-well biosensor microplates with a seeding density of 25,000 cells per well. After being cultured for about 22 h, the cells formed a monolayer with a confluency of about 95 % in the cell culture medium. Then the cells were manually washed using assay buffer (1 × HBSS buffer, 10 mM HEPES, pH = 7.4) and maintained in 30 μL of the assay buffer for 1 h. All samples were dissolved in DMSO and diluted freshly with the assay buffer containing 0.1 % BSA.
(§2) The receptor selectivity was evaluated against a set of G protein-coupled receptors (GPCRs), including opioid receptor (Delta/Kappa/NOP), dopamine receptor (D1/D2), orphan receptor (GPR35), adrenergic receptor (α2A/β2), serotonin receptor (5HT2A), histamine receptor (H1) and cannabinoid receptor (CB1). Following a 1-hour pretreatment with DK, a 2-min baseline was established before introducing probes and monitoring DMR signals for another hour. The cells and probes were as follows: Delta, HEK293-Delta, SNC162; Kappa, HEK293-Kappa, ICI199441; NOP, HEK293-NOP, MCOPPB; D1, HEK293-D1, dopamine; D2, HEK293-D2, dopamine; GPR35, CHO-K1-hGPR35, zaprinast; 5HT2A, HEK293-5HT2A, 5-hydroxytryptamine; α2A, HEK293-α2A, L-Noradrenaline; β2, A431, isoprenaline; H1, A431, histamine; CB1, CHO-K1-CB1, CP 55940. […]

[4] = target: T4, histamine receptor H1 (Homo sapiens, UniProt P35367); test: DMR desensitization assay, A431, probe histamine; format: cell-based; settings: 100 μM DK
T4 construct: endogenous in cells; host or cells: A431
Experimental: as §1, §2

[5] = target: T5, cannabinoid receptor CB1 (Homo sapiens, UniProt P21554); test: DMR desensitization assay, CHO-K1-CB1, probe CP 55940; format: cell-based; settings: 100 μM DK
T5 construct: expressed in transfected cells; host or cells: CHO-K1-CB1
Experimental: as §1, §2

[6] = system: C57BL/6 male mice; test: Hot-plate assay (acute pain); format: in vivo
Experimental: The hot-plate test in mice was conducted following previously established method. Six-week-old C57BL/6 male mice were used in hot-plate assay (n = 6). Hot-plate response latency (55°C) after drug treatment was used to measure antinociceptive effect, where response was defined by the animal either by licking paws, flicking paws or jumping. Mice were exposed to the hot plate (Ugo Basile model 7280, Comerio, Italy) for a maximum of 20 s to avoid tissue damage. After three days’ baseline measure, mice were injected intraperitoneally (5 mL/kg) with the solvent mixture, morphine (5 mg/kg) or DK (20, 40 mg/kg) and latency was tested 0.5-, 1-, 2-, 3- and 4- hours post-administration. Evaluation of MOR agonistic and M3R antagonistic activity of DK, naloxone (2 mg/kg) and oxotremorine (0.4 mg/kg) were first injected intraperitoneally, immediately followed by the injection of morphine (5 mg/kg, evaluation of MOR) or DK (20 mg/kg).

[7] = system: HUVEC cells; test: Cytotoxicity assay (CCK-8), HUVEC; format: cell-based; settings: 24 h
Experimental: HEK293T, CHO, and HUVEC cell lines were cultured overnight in 96-well plates before exposure to compounds for 24 h. Cell viability was evaluated using the Cell Counting Kit-8 (CCK-8, Beyotime Biotechnology, China), and absorbance at 450 nm was measured with a microplate reader. Cell survival rates were calculated relative to control conditions.

[8] = system: C57BL/6 mice; test: Acute toxicity study; format: in vivo; settings: 200 mg/kg daily for 14 days
Experimental: Sixteen C57BL/6 mice (25 ± 1 g, 8 males, 8 females) were used in acute toxicity studies. The mice were randomly divided into 2 groups (half male, half female each group) and treated with either solvent mixture (control) or 200 mg/kg DK (DK-treated) daily for 14 days. Throughout the study, the animals were monitored for motor activity, mortality, and body weight changes, which were recorded every other day.
At the end of the experiment (24 h after final DK administration), blood samples were collected via direct heart puncture, allowed to clot at room temperature, and centrifuged at 3000 rpm for 15 min. Serum was separated and stored at […] for biochemical analysis. Liver and renal injury markers, including aspartate transaminase (AST), alanine transaminase (ALT), UREA, CREA, albumin (ALB), urine acid (UA) and Glucose (Glu), were measured using an automatic biochemical analyzer (Chemray 240, 420 and 800, Rayto, China).
Following blood collection, the mice were sacrificed, and the heart, liver, spleen, lung and kidney were excised. These tissues were fixed in 4 % paraformaldehyde (PFA), dehydrated gradually using ethanol (50–100 %), and embedded in paraffin after clearing with xylene. Sections ([…] thick) were stained with hematoxylin and eosin (HE) for examination.

T1 sequence (P20309 whole entry): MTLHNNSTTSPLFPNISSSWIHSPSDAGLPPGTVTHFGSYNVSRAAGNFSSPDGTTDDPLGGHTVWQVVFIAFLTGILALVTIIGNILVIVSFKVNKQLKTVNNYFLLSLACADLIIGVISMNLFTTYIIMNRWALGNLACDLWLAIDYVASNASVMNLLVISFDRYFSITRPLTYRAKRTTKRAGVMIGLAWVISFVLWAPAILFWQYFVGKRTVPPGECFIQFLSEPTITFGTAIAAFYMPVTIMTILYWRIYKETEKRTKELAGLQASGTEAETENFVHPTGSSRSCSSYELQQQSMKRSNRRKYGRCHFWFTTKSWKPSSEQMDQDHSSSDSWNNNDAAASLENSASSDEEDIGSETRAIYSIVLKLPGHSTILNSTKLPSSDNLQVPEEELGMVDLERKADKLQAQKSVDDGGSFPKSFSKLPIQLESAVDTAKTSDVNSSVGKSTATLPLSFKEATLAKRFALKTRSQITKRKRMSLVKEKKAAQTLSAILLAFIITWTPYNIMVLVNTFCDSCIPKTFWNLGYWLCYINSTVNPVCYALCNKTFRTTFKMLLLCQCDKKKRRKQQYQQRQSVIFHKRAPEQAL
T5 sequence (P21554 whole entry): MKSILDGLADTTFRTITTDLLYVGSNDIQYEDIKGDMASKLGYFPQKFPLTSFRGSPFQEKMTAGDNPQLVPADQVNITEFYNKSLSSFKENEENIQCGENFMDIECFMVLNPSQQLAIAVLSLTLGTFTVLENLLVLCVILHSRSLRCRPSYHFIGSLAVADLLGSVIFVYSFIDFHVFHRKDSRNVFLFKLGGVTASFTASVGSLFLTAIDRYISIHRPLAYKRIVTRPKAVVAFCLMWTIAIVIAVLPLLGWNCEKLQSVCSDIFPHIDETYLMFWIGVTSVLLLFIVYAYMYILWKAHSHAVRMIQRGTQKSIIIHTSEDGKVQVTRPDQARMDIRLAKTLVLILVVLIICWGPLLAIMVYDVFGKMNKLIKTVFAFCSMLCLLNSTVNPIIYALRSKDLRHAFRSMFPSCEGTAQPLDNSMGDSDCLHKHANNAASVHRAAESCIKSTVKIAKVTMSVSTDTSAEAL
T4 sequence (P35367 whole entry): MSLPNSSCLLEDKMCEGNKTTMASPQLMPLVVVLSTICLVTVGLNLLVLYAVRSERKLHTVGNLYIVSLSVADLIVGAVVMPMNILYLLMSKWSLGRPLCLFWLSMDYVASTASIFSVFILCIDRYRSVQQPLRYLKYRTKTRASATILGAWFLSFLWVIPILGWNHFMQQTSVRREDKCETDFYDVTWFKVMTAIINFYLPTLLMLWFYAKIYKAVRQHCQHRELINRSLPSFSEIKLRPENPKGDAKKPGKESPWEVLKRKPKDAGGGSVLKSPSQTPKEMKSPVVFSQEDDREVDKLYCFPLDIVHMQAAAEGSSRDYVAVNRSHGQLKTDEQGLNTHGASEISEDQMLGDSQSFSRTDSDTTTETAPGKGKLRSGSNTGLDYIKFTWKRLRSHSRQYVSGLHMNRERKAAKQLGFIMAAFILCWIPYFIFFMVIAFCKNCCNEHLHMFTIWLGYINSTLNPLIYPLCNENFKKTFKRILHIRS
T2 sequence (P08173 whole entry): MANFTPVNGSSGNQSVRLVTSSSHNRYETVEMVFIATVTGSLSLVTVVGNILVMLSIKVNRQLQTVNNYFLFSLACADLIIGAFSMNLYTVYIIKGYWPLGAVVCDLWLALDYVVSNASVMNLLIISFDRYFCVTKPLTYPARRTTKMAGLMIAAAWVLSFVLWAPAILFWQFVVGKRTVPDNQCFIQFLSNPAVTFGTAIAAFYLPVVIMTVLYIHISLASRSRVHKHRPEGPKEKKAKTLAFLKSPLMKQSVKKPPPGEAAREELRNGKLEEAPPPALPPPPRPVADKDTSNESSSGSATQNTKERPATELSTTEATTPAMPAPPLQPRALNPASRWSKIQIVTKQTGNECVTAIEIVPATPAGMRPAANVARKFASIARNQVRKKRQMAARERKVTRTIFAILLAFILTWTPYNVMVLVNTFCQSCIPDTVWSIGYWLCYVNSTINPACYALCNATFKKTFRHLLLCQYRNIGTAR
T3 sequence (P28223 whole entry): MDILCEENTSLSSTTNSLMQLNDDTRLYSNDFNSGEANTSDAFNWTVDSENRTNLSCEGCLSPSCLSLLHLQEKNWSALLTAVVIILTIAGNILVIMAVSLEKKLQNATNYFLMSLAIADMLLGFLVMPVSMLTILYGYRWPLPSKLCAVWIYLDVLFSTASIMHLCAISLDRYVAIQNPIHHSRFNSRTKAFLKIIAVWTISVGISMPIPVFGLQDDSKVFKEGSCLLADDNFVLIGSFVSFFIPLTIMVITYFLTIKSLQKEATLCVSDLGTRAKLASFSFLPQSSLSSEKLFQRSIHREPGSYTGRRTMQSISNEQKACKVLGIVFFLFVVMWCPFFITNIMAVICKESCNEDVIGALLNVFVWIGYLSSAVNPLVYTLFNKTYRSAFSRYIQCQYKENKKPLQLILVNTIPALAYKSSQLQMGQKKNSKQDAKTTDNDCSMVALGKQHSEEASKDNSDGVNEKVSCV

## C=CC12CN(C)C3CC14c1ccccc1NC4C1CC2C3CO1 (stereo not drawn) [DK]
[1]
  Ki: 55.2 ± 11 µM
  efficacy (maximal inhibition of radioligand binding): 74.6%
[2]
  inhibition of carbachol-induced Ca2+ response: could not concentration-dependently inhibit
[3]
  reduction of probe DMR response (desensitization): almost unable to reduce the response
[4]
  reduction of probe DMR response (desensitization): almost unable to reduce the response
[5]
  reduction of probe DMR response (desensitization): almost unable to reduce the response
[6]; DK 20 mg/kg, naloxone 2 mg/kg
  effect of naloxone on pain threshold in hot plate assay: naloxone failed to decrease the pain threshold of DK
[6]; DK 20 mg/kg, oxotremorine 0.4 mg/kg
  effect of oxotremorine on antinociception in hot plate assay: oxotremorine markedly diminished the antinociceptive efficacy of DK
[6]; DK 20, 40 mg/kg i.p.
  duration of antinociception: at least 3 h
[6]; DK 20, 40 mg/kg i.p., 55°C
  antinociception (hot-plate response latency): potent antinociception in a dose-dependent manner
[7]
  cytotoxicity (cell viability): noncytotoxic
[8]
  body weight gain: no significant differences between DK-treated and control groups
  organ coefficients (heart, liver, spleen, lung, kidney): comparable between the two groups
  serum biochemical indicators and histological analysis of major organs (HE staining): no significant structural or biochemical differences
  visible abnormalities of major organs: No visible abnormalities were detected in the major organs
